Measured values from the supplement of paper PMC10307832.

Compound: C1CSC2=C(C(=O)N1)SC3=C2C=C(C=C3)O [kb NB 142-70] + CCNC(=O)c1noc(-c2cc(C(C)C)c(O)cc2O)c1-c1ccc(CN2CCOCC2)cc1 [Luminespib] (partner 0.01 µM)
Test: relative viability (nuclei count vs DMSO), 5 days (fraction); higher = more cells survive
Procedure, shortened: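 Lung cancer cell lines were seeded in 1536-well plates and dosed by pin tool the next day, with either a single drug or a fixed anchor-drug dose combined with five library-drug doses (not always all listed) spaced in √10 steps. Five days later, one step fixed the cells and stained their nuclei (final 0.05% Triton X-100, 1% formaldehyde, 1 ug/ml Hoechst), and nuclei were counted on 4× images. Relative viability is the nuclei count in treated wells divided by the count in vehicle wells, and each value is the median of duplicate plates.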

NCI-H2342
relative viability (first compound 0.1 µM): 0.625
relative viability (first compound 1 µM): 0.761
relative viability (first compound 3.162 µM): 0.719

HCC-15
relative viability (first compound 0.1 µM): 0.195
relative viability (first compound 1 µM): 0.605
relative viability (first compound 3.162 µM): 0.393

A-427
relative viability (first compound 0.1 µM): 0.845
relative viability (first compound 1 µM): 1.12
relative viability (first compound 3.162 µM): 0.584

NCI-H2228
relative viability (first compound 0.1 µM): 0.176
relative viability (first compound 1 µM): 0.13
relative viability (first compound 3.162 µM): 0.119

NCI-H1734
relative viability (first compound 0.1 µM): 0.185
relative viability (first compound 1 µM): 0.205
relative viability (first compound 3.162 µM): 0.171

PC-14
relative viability (first compound 0.1 µM): 0.149
relative viability (first compound 1 µM): 0.173
relative viability (first compound 3.162 µM): 0.13

NCI-H1915
relative viability (first compound 0.1 µM): 0.797
relative viability (first compound 1 µM): 0.897
relative viability (first compound 3.162 µM): 0.489

NCI-H1666
relative viability (first compound 0.1 µM): 0.898
relative viability (first compound 1 µM): 0.985
relative viability (first compound 3.162 µM): 0.81

SK-MES-1
relative viability (first compound 0.1 µM): 0.84
relative viability (first compound 1 µM): 0.743
relative viability (first compound 3.162 µM): 0.35

SW 1573
relative viability (first compound 0.1 µM): 0.21
relative viability (first compound 1 µM): 0.413
relative viability (first compound 3.162 µM): 0.149

NCI-H661
relative viability (first compound 0.1 µM): 0.905
relative viability (first compound 1 µM): 0.845
relative viability (first compound 3.162 µM): 0.805

PC-3 [JPC-3]
relative viability (first compound 0.1 µM): 0.709
relative viability (first compound 1 µM): 0.817
relative viability (first compound 3.162 µM): 0.627

NCI-H1623
relative viability (first compound 0.1 µM): 0.427
relative viability (first compound 1 µM): 0.476
relative viability (first compound 3.162 µM): 0.594

LC-2-ad
relative viability (first compound 0.1 µM): 0.997
relative viability (first compound 1 µM): 1.04
relative viability (first compound 3.162 µM): 0.699

CAL-12T
relative viability (first compound 0.1 µM): 0.56
relative viability (first compound 1 µM): 0.611
relative viability (first compound 3.162 µM): 0.25

RERF-LC-KJ
relative viability (first compound 0.1 µM): 1.33
relative viability (first compound 1 µM): 1.27
relative viability (first compound 3.162 µM): 0.936

NCI-H1650
relative viability (first compound 0.1 µM): 0.204
relative viability (first compound 1 µM): 0.19
relative viability (first compound 3.162 µM): 0.18

BEN
relative viability (first compound 0.1 µM): 0.412
relative viability (first compound 1 µM): 1.13
relative viability (first compound 3.162 µM): 0.281

EMC-BAC-2
relative viability (first compound 0.1 µM): 1.25
relative viability (first compound 1 µM): 1.17
relative viability (first compound 3.162 µM): 0.972

LU99A
relative viability (first compound 0.1 µM): 0.272
relative viability (first compound 1 µM): 0.246
relative viability (first compound 3.162 µM): 0.265

ABC-1
relative viability (first compound 0.1 µM): 0.536
relative viability (first compound 1 µM): 0.487
relative viability (first compound 3.162 µM): 0.336

NCI-H2170
relative viability (first compound 0.1 µM): 0.578
relative viability (first compound 1 µM): 0.728
relative viability (first compound 3.162 µM): 0.521

NCI-H2347
relative viability (first compound 0.1 µM): 0.387
relative viability (first compound 1 µM): 0.431
relative viability (first compound 3.162 µM): 0.387

NCI-H1993
relative viability (first compound 0.1 µM): 1.03
relative viability (first compound 1 µM): 0.858
relative viability (first compound 3.162 µM): 0.673

NCI-H322M
relative viability (first compound 0.1 µM): 0.767
relative viability (first compound 1 µM): 0.947
relative viability (first compound 3.162 µM): 0.693

NCI-H838
relative viability (first compound 0.1 µM): 0.374
relative viability (first compound 1 µM): 0.339
relative viability (first compound 3.162 µM): 0.218

HARA
relative viability (first compound 0.1 µM): 0.625
relative viability (first compound 1 µM): 0.769
relative viability (first compound 3.162 µM): 0.456

NCI-H2087
relative viability (first compound 0.1 µM): 0.183
relative viability (first compound 1 µM): 0.164
relative viability (first compound 3.162 µM): 0.116

NCI-H1437
relative viability (first compound 0.1 µM): 1.12
relative viability (first compound 1 µM): 1.1
relative viability (first compound 3.162 µM): 0.932

NCI-H1792
relative viability (first compound 0.1 µM): 0.429
relative viability (first compound 1 µM): 0.582
relative viability (first compound 3.162 µM): 0.553

ChaGo-K-1
relative viability (first compound 0.1 µM): 0.664
relative viability (first compound 1 µM): 0.638
relative viability (first compound 3.162 µM): 0.448

NCI-H650
relative viability (first compound 0.1 µM): 0.76
relative viability (first compound 1 µM): 0.777
relative viability (first compound 3.162 µM): 0.499

COR-L23
relative viability (first compound 0.1 µM): 0.665
relative viability (first compound 1 µM): 0.524
relative viability (first compound 3.162 µM): 0.159

COR-L 105
relative viability (first compound 0.1 µM): 0.603
relative viability (first compound 1 µM): 0.634
relative viability (first compound 3.162 µM): 0.712

LK-2
relative viability (first compound 0.1 µM): 0.206
relative viability (first compound 1 µM): 0.215
relative viability (first compound 3.162 µM): 0.173

201T
relative viability (first compound 0.1 µM): 1.04
relative viability (first compound 1 µM): 1.03
relative viability (first compound 3.162 µM): 1.08

HCC-44
relative viability (first compound 0.1 µM): 1.03
relative viability (first compound 1 µM): 1
relative viability (first compound 3.162 µM): 0.405

NCI-H596
relative viability (first compound 0.1 µM): 0.945
relative viability (first compound 1 µM): 1.11
relative viability (first compound 3.162 µM): 0.876

H3255
relative viability (first compound 0.1 µM): 0.881
relative viability (first compound 1 µM): 0.845
relative viability (first compound 3.162 µM): 1.12

NCI-H647
relative viability (first compound 0.1 µM): 0.177
relative viability (first compound 1 µM): 0.184
relative viability (first compound 3.162 µM): 0.11

NCI-H2023
relative viability (first compound 0.1 µM): 0.747
relative viability (first compound 1 µM): 0.661
relative viability (first compound 3.162 µM): 0.272

NCI-H23
relative viability (first compound 0.1 µM): 0.231
relative viability (first compound 1 µM): 0.207
relative viability (first compound 3.162 µM): 0.201

NCI-H1944
relative viability (first compound 0.1 µM): 0.708
relative viability (first compound 1 µM): 0.726
relative viability (first compound 3.162 µM): 0.8

NCI-H1793
relative viability (first compound 0.1 µM): 0.188
relative viability (first compound 1 µM): 0.179
relative viability (first compound 3.162 µM): 0.153

NCI-H520
relative viability (first compound 0.1 µM): 0.255
relative viability (first compound 1 µM): 0.247
relative viability (first compound 3.162 µM): 0.214

NCI-H460
relative viability (first compound 0.1 µM): 0.0325
relative viability (first compound 1 µM): 0.0315
relative viability (first compound 3.162 µM): 0.0216

EKVX
relative viability (first compound 0.1 µM): 0.81
relative viability (first compound 1 µM): 0.857
relative viability (first compound 3.162 µM): 0.943

NCI-H358
relative viability (first compound 0.1 µM): 0.278
relative viability (first compound 1 µM): 0.152
relative viability (first compound 3.162 µM): 0.148

EPLC-272H
relative viability (first compound 0.1 µM): 0.361
relative viability (first compound 1 µM): 0.216
relative viability (first compound 3.162 µM): 0.157

NCI-H1563
relative viability (first compound 0.1 µM): 0.597
relative viability (first compound 1 µM): 0.498
relative viability (first compound 3.162 µM): 0.538

NCI-H1395
relative viability (first compound 0.1 µM): 0.79
relative viability (first compound 1 µM): 0.69
relative viability (first compound 3.162 µM): 0.464

NCI-H2126
relative viability (first compound 0.1 µM): 0.797
relative viability (first compound 1 µM): 0.878
relative viability (first compound 3.162 µM): 0.879

LXF-289
relative viability (first compound 0.1 µM): 0.78
relative viability (first compound 1 µM): 0.621
relative viability (first compound 3.162 µM): 0.49

NCI-H2009
relative viability (first compound 0.1 µM): 1.15
relative viability (first compound 1 µM): 1.05
relative viability (first compound 3.162 µM): 0.685

NCI-H522
relative viability (first compound 0.1 µM): 1.18
relative viability (first compound 1 µM): 1.03
relative viability (first compound 3.162 µM): 0.974

NCI-H2405
relative viability (first compound 0.1 µM): 0.733
relative viability (first compound 1 µM): 0.728
relative viability (first compound 3.162 µM): 0.523

NCI-H1755
relative viability (first compound 0.1 µM): 0.49
relative viability (first compound 1 µM): 0.45
relative viability (first compound 3.162 µM): 0.557

LOU-NH91
relative viability (first compound 0.1 µM): 0.312
relative viability (first compound 1 µM): 0.316
relative viability (first compound 3.162 µM): 0.286

NCI-H3122
relative viability (first compound 0.1 µM): 0.0874
relative viability (first compound 1 µM): 0.075
relative viability (first compound 3.162 µM): 0.0881

HCC-827
relative viability (first compound 0.1 µM): 0.589
relative viability (first compound 1 µM): 0.59
relative viability (first compound 3.162 µM): 0.373

SK-LU-1
relative viability (first compound 0.1 µM): 0.198
relative viability (first compound 1 µM): 0.199
relative viability (first compound 3.162 µM): 0.204

NCI-H1975
relative viability (first compound 0.1 µM): 0.286
relative viability (first compound 1 µM): 0.197
relative viability (first compound 3.162 µM): 0.106

NCI-H1651
relative viability (first compound 0.1 µM): 0.926
relative viability (first compound 1 µM): 0.856
relative viability (first compound 3.162 µM): 0.354

NCI-H441
relative viability (first compound 0.1 µM): 0.397
relative viability (first compound 1 µM): 0.353
relative viability (first compound 3.162 µM): 0.244

LCLC-103H
relative viability (first compound 0.1 µM): 0.956
relative viability (first compound 1 µM): 0.997
relative viability (first compound 3.162 µM): 0.903

LCLC-97TM1
relative viability (first compound 0.1 µM): 0.72
relative viability (first compound 1 µM): 0.76
relative viability (first compound 3.162 µM): 0.692

NCI-H727
relative viability (first compound 0.1 µM): 0.226
relative viability (first compound 1 µM): 0.346
relative viability (first compound 3.162 µM): 0.42

NCI-H1355
relative viability (first compound 0.1 µM): 0.733
relative viability (first compound 1 µM): 0.683
relative viability (first compound 3.162 µM): 0.553

HOP-62
relative viability (first compound 0.1 µM): 0.971
relative viability (first compound 1 µM): 0.884
relative viability (first compound 3.162 µM): 1.06

NCI-H2085
relative viability (first compound 0.1 µM): 0.383
relative viability (first compound 1 µM): 0.358
relative viability (first compound 3.162 µM): 0.339

SW 900
relative viability (first compound 0.1 µM): 0.187
relative viability (first compound 1 µM): 0.181
relative viability (first compound 3.162 µM): 0.177
